# In patent publication US11834453B2, “Substituted pyrimido[5,4-d]pyrimidines as HER2 inhibitors” (Array BioPharma Inc., priority 2020, dated 2023):
# Target: ErbB2 with Exon 20 YVMA insertion (HER2-YVMA) (Homo sapiens (Human), UniProt P04626, INS775YVMA)
# Experiment: Cellular phosphorylation assay, constitutive ErbB2 phosphorylation (Y1196) in engineered NIH 3T3 cells, Assay 4
# Assay type: cell-based
# Details: not given
# Summary of the method: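 Engineered NIH 3T3 cells expressing HER2-YVMA treated with compounds 1 h at 37 °C, then formaldehyde-fixed and methanol-permeabilized. pErbB2 Y1196 detected by in-cell infrared immunofluorescence, normalized to GAPDH. IC50 from the normalized curves.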
# ErbB2 with Exon 20 YVMA insertion (HER2-YVMA), sequence (P04626 other isoform, or with tags, fused parts or gaps ins YVMA behind 775): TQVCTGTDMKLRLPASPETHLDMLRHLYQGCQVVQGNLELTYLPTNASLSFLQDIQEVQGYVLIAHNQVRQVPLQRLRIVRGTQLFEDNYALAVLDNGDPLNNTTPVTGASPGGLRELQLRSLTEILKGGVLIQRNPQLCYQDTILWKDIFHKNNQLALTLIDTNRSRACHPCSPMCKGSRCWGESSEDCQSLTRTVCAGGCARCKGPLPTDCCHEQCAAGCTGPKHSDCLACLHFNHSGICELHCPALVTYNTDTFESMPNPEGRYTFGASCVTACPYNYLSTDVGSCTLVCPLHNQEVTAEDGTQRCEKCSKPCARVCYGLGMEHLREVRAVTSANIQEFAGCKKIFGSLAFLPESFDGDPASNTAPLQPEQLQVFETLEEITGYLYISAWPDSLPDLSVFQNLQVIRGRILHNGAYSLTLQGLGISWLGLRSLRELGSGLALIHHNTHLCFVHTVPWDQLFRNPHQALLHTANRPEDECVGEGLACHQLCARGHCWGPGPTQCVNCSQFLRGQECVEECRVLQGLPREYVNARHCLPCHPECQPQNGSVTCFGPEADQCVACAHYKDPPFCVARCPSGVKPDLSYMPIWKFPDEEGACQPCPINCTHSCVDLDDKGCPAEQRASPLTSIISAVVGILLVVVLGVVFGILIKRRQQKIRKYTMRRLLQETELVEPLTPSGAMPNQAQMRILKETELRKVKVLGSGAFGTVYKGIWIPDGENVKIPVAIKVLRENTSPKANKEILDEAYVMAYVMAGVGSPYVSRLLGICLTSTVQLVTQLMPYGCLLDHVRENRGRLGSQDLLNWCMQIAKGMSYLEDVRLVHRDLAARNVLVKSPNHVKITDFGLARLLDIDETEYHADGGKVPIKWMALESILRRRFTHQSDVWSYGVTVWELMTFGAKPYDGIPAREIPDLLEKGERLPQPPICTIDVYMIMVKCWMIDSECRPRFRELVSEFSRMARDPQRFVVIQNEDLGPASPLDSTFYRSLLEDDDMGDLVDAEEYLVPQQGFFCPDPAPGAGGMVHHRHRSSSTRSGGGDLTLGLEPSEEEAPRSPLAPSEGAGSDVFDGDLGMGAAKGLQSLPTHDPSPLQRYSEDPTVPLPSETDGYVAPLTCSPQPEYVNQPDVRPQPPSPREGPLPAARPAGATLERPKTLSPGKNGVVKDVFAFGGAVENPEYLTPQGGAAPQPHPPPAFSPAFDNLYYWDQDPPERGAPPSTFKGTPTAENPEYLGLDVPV
row,Compound,IC50
1,Clc1cc(Nc2ncnc3cnc(N4CCO[C@H]5C[C@H]54)nc23)ccc1Oc1ccn2ncnc2c1 [Example 384],91.5 nM
2,Cc1cc(Nc2ncnc3cnc(N(C)CC4(O)CC4)nc23)ccc1Oc1ccn2ncnc2c1 [Example 385],183 nM
3,Cc1cc(Nc2ncnc3cnc(N4CCC[C@@]5(CCO5)C4)nc23)ccc1Oc1ccc2c(c1)ncn2C [Example 386],16.7 nM
4,N#C[C@@H]1CCN(c2ncc3ncnc(Nc4ccc(Oc5ccn6ncnc6c5)c(Cl)c4)c3n2)C1 [Example 387],163 nM
5,Clc1cc(Nc2ncnc3cnc(N4C[C@H]5CC[C@@H]4CO5)nc23)ccc1Oc1ccn2ncnc2c1 [Example 389],127 nM
6,Cc1cc(Nc2ncnc3cnc(N4CC[C@H]4C(F)F)nc23)ccc1Oc1ccn2ncnc2c1 [Example 390],108 nM
7,Cc1cc(Nc2ncnc3cnc(N4C[C@]5(CCOC5)CC4=O)nc23)ccc1Oc1ccc2c(c1)ncn2C [Example 391],143 nM
8,Cc1c(Oc2ccc3c(c2)ncn3C)ccc(Nc2ncnc3cnc(N4CC[C@@H](O)C4)nc23)c1F [Example 392],79.9 nM
9,Cn1cnc2cc(Oc3ccc(Nc4ncnc5cnc(N6C[C@@H]7[C@@H](C#N)[C@@H]7C6)nc45)cc3Cl)ccc21 [Example 393],43.2 nM
10,CO[C@@H]1CCN(c2ncc3ncnc(Nc4ccc(Oc5ccn6ncnc6c5)c(C)c4)c3n2)C1 [Example 395],898 nM
11,CN(C)c1ncc2ncnc(Nc3ccc(Oc4ccn5ncnc5c4)c(Cl)c3)c2n1 [Example 396],23.9 nM
12,Clc1cc(Nc2ncnc3cnc(N4CCOC5(CC5)C4)nc23)ccc1Oc1ccn2ncnc2c1 [Example 398],70.5 nM
13,Clc1cc(Nc2ncnc3cnc(N4C[C@@H]5[C@H](C4)[C@@H]4CC[C@H]5O4)nc23)ccc1Oc1ccn2ncnc2c1 [Example 399],192 nM
14,Cc1cc(Nc2ncnc3cnc(N4CC[C@@H](C(F)F)C4)nc23)ccc1Oc1ccn2ncnc2c1 [Example 400],218 nM
15,Cc1cc(Nc2ncnc3cnc(N4C[C@@H]5[C@@H](C#N)[C@@H]5C4)nc23)ccc1Oc1ccc2c(c1)ncn2C [Example 401],24.8 nM

# Target: ErbB2 insYVMA (HER2-YVMA, SEQ ID NO: 2) (Homo sapiens, UniProt P04626, INS775YVMA/P1170A)
# Experiment: biochemical
# Details: ErbB2 insYVMA enzyme assay; read-out: Assay 1 IC50
# ErbB2 insYVMA (HER2-YVMA, SEQ ID NO: 2), sequence (P04626 with tags, fused parts or gaps INS775YVMA/P1170A limits assumed): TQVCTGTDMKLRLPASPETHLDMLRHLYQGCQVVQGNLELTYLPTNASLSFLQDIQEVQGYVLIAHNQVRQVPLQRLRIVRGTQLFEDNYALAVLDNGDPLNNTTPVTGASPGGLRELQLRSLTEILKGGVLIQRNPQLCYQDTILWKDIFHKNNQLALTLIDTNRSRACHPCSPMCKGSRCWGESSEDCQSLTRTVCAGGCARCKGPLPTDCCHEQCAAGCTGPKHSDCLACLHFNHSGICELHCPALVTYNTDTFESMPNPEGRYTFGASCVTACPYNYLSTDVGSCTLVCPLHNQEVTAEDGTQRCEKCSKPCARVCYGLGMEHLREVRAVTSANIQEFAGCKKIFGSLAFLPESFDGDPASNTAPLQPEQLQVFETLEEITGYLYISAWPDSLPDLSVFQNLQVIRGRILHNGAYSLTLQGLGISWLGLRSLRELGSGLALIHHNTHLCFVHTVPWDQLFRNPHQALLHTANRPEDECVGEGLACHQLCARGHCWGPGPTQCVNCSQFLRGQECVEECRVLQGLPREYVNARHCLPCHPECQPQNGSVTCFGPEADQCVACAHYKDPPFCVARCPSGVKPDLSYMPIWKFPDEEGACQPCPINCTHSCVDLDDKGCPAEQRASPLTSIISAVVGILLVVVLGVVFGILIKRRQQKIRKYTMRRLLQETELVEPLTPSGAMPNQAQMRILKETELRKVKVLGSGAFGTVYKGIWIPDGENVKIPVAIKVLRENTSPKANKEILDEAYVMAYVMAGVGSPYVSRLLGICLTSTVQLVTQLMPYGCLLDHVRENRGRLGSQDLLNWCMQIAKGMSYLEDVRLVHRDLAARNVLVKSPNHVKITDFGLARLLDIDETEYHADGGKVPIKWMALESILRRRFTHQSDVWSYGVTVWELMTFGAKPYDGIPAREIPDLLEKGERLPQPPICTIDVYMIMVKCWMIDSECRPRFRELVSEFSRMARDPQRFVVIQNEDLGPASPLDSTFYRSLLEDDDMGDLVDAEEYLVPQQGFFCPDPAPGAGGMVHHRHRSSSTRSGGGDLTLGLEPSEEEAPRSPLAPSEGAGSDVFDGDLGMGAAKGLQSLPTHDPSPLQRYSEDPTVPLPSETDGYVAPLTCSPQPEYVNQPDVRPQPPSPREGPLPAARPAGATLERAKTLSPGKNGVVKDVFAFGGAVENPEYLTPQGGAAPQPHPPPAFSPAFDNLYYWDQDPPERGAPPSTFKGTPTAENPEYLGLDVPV
row,Compound,IC50
1,Clc1cc(Nc2ncnc3cnc(N4CCO[C@H]5C[C@H]54)nc23)ccc1Oc1ccn2ncnc2c1 [Example 384],13.6 nM
2,Cc1cc(Nc2ncnc3cnc(N(C)CC4(O)CC4)nc23)ccc1Oc1ccn2ncnc2c1 [Example 385],18.5 nM
3,Cc1cc(Nc2ncnc3cnc(N4CCC[C@@]5(CCO5)C4)nc23)ccc1Oc1ccc2c(c1)ncn2C [Example 386],82.1 nM
4,N#C[C@@H]1CCN(c2ncc3ncnc(Nc4ccc(Oc5ccn6ncnc6c5)c(Cl)c4)c3n2)C1 [Example 387],70 nM
5,Clc1cc(Nc2ncnc3cnc(N4C[C@H]5CC[C@@H]4CO5)nc23)ccc1Oc1ccn2ncnc2c1 [Example 389],16.7 nM
6,Cc1cc(Nc2ncnc3cnc(N4CC[C@H]4C(F)F)nc23)ccc1Oc1ccn2ncnc2c1 [Example 390],24.8 nM
7,Cc1cc(Nc2ncnc3cnc(N4C[C@]5(CCOC5)CC4=O)nc23)ccc1Oc1ccc2c(c1)ncn2C [Example 391],94.3 nM
8,Cc1c(Oc2ccc3c(c2)ncn3C)ccc(Nc2ncnc3cnc(N4CC[C@@H](O)C4)nc23)c1F [Example 392],16.6 nM
9,Cn1cnc2cc(Oc3ccc(Nc4ncnc5cnc(N6C[C@@H]7[C@@H](C#N)[C@@H]7C6)nc45)cc3Cl)ccc21 [Example 393],63.3 nM
10,CO[C@@H]1CCN(c2ncc3ncnc(Nc4ccc(Oc5ccn6ncnc6c5)c(C)c4)c3n2)C1 [Example 395],24.6 nM
11,CN(C)c1ncc2ncnc(Nc3ccc(Oc4ccn5ncnc5c4)c(Cl)c3)c2n1 [Example 396],4.9 nM
12,Clc1cc(Nc2ncnc3cnc(N4CCOC5(CC5)C4)nc23)ccc1Oc1ccn2ncnc2c1 [Example 398],22.1 nM
13,Clc1cc(Nc2ncnc3cnc(N4C[C@@H]5[C@H](C4)[C@@H]4CC[C@H]5O4)nc23)ccc1Oc1ccn2ncnc2c1 [Example 399],28.2 nM
14,Cc1cc(Nc2ncnc3cnc(N4CC[C@@H](C(F)F)C4)nc23)ccc1Oc1ccn2ncnc2c1 [Example 400],8.7 nM
15,Cc1cc(Nc2ncnc3cnc(N4C[C@@H]5[C@@H](C#N)[C@@H]5C4)nc23)ccc1Oc1ccc2c(c1)ncn2C [Example 401],149 nM

# Target: ErbB2 WT (Homo sapiens (Human), UniProt P04626)
# Experiment: ErbB enzyme assay (CisBio HTRF KinEASE-TK), Assay 2
# Assay type: biochemical
# Details: not given
# Summary of the method: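 ErbB2 phosphorylates 250 nM biotin-TK substrate at 1 mM ATP in 25 mM HEPES pH 7.4, 10 mM MgCl2, 0.01% Triton X-100 and 2% DMSO, for 30 min at 22 °C. Product is detected by HTRF with Sa-XL665 and TK-Ab-Cryptate. Percent of control is set by DMSO-only wells and pre-quenched wells.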
row,Compound,IC50
1,Clc1cc(Nc2ncnc3cnc(N4CCO[C@H]5C[C@H]54)nc23)ccc1Oc1ccn2ncnc2c1 [Example 384],43 nM
2,Cc1cc(Nc2ncnc3cnc(N(C)CC4(O)CC4)nc23)ccc1Oc1ccn2ncnc2c1 [Example 385],40 nM
3,Cc1cc(Nc2ncnc3cnc(N4CCC[C@@]5(CCO5)C4)nc23)ccc1Oc1ccc2c(c1)ncn2C [Example 386],59.4 nM
4,N#C[C@@H]1CCN(c2ncc3ncnc(Nc4ccc(Oc5ccn6ncnc6c5)c(Cl)c4)c3n2)C1 [Example 387],132 nM
5,Clc1cc(Nc2ncnc3cnc(N4C[C@H]5CC[C@@H]4CO5)nc23)ccc1Oc1ccn2ncnc2c1 [Example 389],12.2 nM
6,Cc1cc(Nc2ncnc3cnc(N4CC[C@H]4C(F)F)nc23)ccc1Oc1ccn2ncnc2c1 [Example 390],44.6 nM
7,Cc1cc(Nc2ncnc3cnc(N4C[C@]5(CCOC5)CC4=O)nc23)ccc1Oc1ccc2c(c1)ncn2C [Example 391],298 nM
8,Cc1c(Oc2ccc3c(c2)ncn3C)ccc(Nc2ncnc3cnc(N4CC[C@@H](O)C4)nc23)c1F [Example 392],14.6 nM
9,Cn1cnc2cc(Oc3ccc(Nc4ncnc5cnc(N6C[C@@H]7[C@@H](C#N)[C@@H]7C6)nc45)cc3Cl)ccc21 [Example 393],237 nM
10,CO[C@@H]1CCN(c2ncc3ncnc(Nc4ccc(Oc5ccn6ncnc6c5)c(C)c4)c3n2)C1 [Example 395],57.6 nM
11,CN(C)c1ncc2ncnc(Nc3ccc(Oc4ccn5ncnc5c4)c(Cl)c3)c2n1 [Example 396],9.6 nM
12,Clc1cc(Nc2ncnc3cnc(N4CCOC5(CC5)C4)nc23)ccc1Oc1ccn2ncnc2c1 [Example 398],36.5 nM
13,Clc1cc(Nc2ncnc3cnc(N4C[C@@H]5[C@H](C4)[C@@H]4CC[C@H]5O4)nc23)ccc1Oc1ccn2ncnc2c1 [Example 399],29 nM
14,Cc1cc(Nc2ncnc3cnc(N4CC[C@@H](C(F)F)C4)nc23)ccc1Oc1ccn2ncnc2c1 [Example 400],40.7 nM
15,Cc1cc(Nc2ncnc3cnc(N4C[C@@H]5[C@@H](C#N)[C@@H]5C4)nc23)ccc1Oc1ccc2c(c1)ncn2C [Example 401],161 nM

# Target: EGFR wild type (EGFR WT) (Homo sapiens (Human), UniProt P00533)
# Experiment: Cellular phosphorylation assay, EGF-stimulated EGFR phosphorylation in engineered NIH 3T3 cells, Phospho-EGFR DuoSet IC ELISA, Assay 5
# Assay type: cell-based
# Details: not given
# Summary of the method: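 NIH 3T3 cells expressing EGFR WT (20,000/well, attached overnight) were exposed to serially diluted compound for 1 h at 37 °C, then stimulated with 100 ng/ml rEGF for 10 min. Phospho-EGFR in lysates measured by sandwich ELISA optical density; IC50 from curves.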
# EGFR wild type (EGFR WT), sequence (P00533 25-1210): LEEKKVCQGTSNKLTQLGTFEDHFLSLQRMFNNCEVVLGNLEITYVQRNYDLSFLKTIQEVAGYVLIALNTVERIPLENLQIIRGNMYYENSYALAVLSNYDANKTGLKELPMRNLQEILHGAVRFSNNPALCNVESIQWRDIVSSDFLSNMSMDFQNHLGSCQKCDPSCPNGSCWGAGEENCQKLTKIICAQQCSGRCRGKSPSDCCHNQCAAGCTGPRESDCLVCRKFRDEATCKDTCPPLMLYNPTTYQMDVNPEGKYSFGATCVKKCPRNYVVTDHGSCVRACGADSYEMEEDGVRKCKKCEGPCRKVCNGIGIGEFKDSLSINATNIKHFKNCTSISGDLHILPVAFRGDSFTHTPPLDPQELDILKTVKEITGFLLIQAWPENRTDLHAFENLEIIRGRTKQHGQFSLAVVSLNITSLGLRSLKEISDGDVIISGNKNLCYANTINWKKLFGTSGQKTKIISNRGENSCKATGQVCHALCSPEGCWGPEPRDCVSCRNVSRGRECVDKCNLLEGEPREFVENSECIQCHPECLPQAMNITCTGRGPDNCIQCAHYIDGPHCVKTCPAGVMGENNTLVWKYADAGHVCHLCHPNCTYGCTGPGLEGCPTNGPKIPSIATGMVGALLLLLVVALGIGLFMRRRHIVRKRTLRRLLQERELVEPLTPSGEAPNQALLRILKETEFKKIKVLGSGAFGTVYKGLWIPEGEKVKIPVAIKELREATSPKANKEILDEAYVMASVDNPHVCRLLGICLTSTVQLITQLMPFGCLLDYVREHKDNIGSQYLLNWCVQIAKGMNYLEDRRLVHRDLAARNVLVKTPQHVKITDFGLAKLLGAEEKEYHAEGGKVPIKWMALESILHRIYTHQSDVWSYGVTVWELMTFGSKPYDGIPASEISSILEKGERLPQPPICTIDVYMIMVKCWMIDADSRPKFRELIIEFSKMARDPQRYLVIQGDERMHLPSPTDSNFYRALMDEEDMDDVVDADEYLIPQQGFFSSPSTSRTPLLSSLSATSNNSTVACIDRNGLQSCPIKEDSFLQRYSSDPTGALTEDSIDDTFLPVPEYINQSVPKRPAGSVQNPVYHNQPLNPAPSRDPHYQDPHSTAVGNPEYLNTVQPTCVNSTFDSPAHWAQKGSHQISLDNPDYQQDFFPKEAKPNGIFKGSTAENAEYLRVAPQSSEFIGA
row,Compound,IC50
1,Clc1cc(Nc2ncnc3cnc(N4CCO[C@H]5C[C@H]54)nc23)ccc1Oc1ccn2ncnc2c1 [Example 384],≥ 5 µM
2,Cc1cc(Nc2ncnc3cnc(N(C)CC4(O)CC4)nc23)ccc1Oc1ccn2ncnc2c1 [Example 385],≥ 5 µM
3,Cc1cc(Nc2ncnc3cnc(N4CCC[C@@]5(CCO5)C4)nc23)ccc1Oc1ccc2c(c1)ncn2C [Example 386],≥ 5 µM
4,N#C[C@@H]1CCN(c2ncc3ncnc(Nc4ccc(Oc5ccn6ncnc6c5)c(Cl)c4)c3n2)C1 [Example 387],≥ 5 µM
5,Clc1cc(Nc2ncnc3cnc(N4C[C@H]5CC[C@@H]4CO5)nc23)ccc1Oc1ccn2ncnc2c1 [Example 389],≥ 5 µM
6,Cc1cc(Nc2ncnc3cnc(N4CC[C@H]4C(F)F)nc23)ccc1Oc1ccn2ncnc2c1 [Example 390],≥ 5 µM
7,Cc1cc(Nc2ncnc3cnc(N4C[C@]5(CCOC5)CC4=O)nc23)ccc1Oc1ccc2c(c1)ncn2C [Example 391],≥ 5 µM
8,Cc1c(Oc2ccc3c(c2)ncn3C)ccc(Nc2ncnc3cnc(N4CC[C@@H](O)C4)nc23)c1F [Example 392],≥ 5 µM
9,Cn1cnc2cc(Oc3ccc(Nc4ncnc5cnc(N6C[C@@H]7[C@@H](C#N)[C@@H]7C6)nc45)cc3Cl)ccc21 [Example 393],≥ 5 µM
10,CO[C@@H]1CCN(c2ncc3ncnc(Nc4ccc(Oc5ccn6ncnc6c5)c(C)c4)c3n2)C1 [Example 395],≥ 5 µM
11,CN(C)c1ncc2ncnc(Nc3ccc(Oc4ccn5ncnc5c4)c(Cl)c3)c2n1 [Example 396],≥ 5 µM
12,Clc1cc(Nc2ncnc3cnc(N4CCOC5(CC5)C4)nc23)ccc1Oc1ccn2ncnc2c1 [Example 398],≥ 5 µM
13,Clc1cc(Nc2ncnc3cnc(N4C[C@@H]5[C@H](C4)[C@@H]4CC[C@H]5O4)nc23)ccc1Oc1ccn2ncnc2c1 [Example 399],≥ 5 µM
14,Cc1cc(Nc2ncnc3cnc(N4CC[C@@H](C(F)F)C4)nc23)ccc1Oc1ccn2ncnc2c1 [Example 400],≥ 5 µM
15,Cc1cc(Nc2ncnc3cnc(N4C[C@@H]5[C@@H](C#N)[C@@H]5C4)nc23)ccc1Oc1ccc2c(c1)ncn2C [Example 401],≥ 5 µM

# Target: EGFR (Homo sapiens (Human), UniProt P00533)
# Experiment: ErbB enzyme assay (CisBio HTRF KinEASE-TK), Assay 3
# Assay type: biochemical
# Details: not given
# Summary of the method: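 HTRF KinEASE-TK assay: kinase with 250 nM biotinylated TK-substrate and 1 mM ATP in 25 mM HEPES pH 7.4, 10 mM MgCl2, 0.01% Triton X-100, 2% DMSO, 30 min at 22 °C. Quenched with Sa-XL665/TK-Ab-Cryptate, read after 1 h. IC50 from 4-parameter fit of percent of control.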
# EGFR, sequence (P00533 25-1210): as above
row,Compound,IC50
1,Clc1cc(Nc2ncnc3cnc(N4CCO[C@H]5C[C@H]54)nc23)ccc1Oc1ccn2ncnc2c1 [Example 384],4.31 µM
2,Cc1cc(Nc2ncnc3cnc(N(C)CC4(O)CC4)nc23)ccc1Oc1ccn2ncnc2c1 [Example 385],5.15 µM
3,Cc1cc(Nc2ncnc3cnc(N4CCC[C@@]5(CCO5)C4)nc23)ccc1Oc1ccc2c(c1)ncn2C [Example 386],6.99 µM
4,N#C[C@@H]1CCN(c2ncc3ncnc(Nc4ccc(Oc5ccn6ncnc6c5)c(Cl)c4)c3n2)C1 [Example 387],≥ 10 µM
5,Clc1cc(Nc2ncnc3cnc(N4C[C@H]5CC[C@@H]4CO5)nc23)ccc1Oc1ccn2ncnc2c1 [Example 389],≥ 10 µM
6,Cc1cc(Nc2ncnc3cnc(N4CC[C@H]4C(F)F)nc23)ccc1Oc1ccn2ncnc2c1 [Example 390],3.98 µM
7,Cc1cc(Nc2ncnc3cnc(N4C[C@]5(CCOC5)CC4=O)nc23)ccc1Oc1ccc2c(c1)ncn2C [Example 391],≥ 10 µM
8,Cc1c(Oc2ccc3c(c2)ncn3C)ccc(Nc2ncnc3cnc(N4CC[C@@H](O)C4)nc23)c1F [Example 392],≥ 10 µM
9,Cn1cnc2cc(Oc3ccc(Nc4ncnc5cnc(N6C[C@@H]7[C@@H](C#N)[C@@H]7C6)nc45)cc3Cl)ccc21 [Example 393],≥ 10 µM
10,CO[C@@H]1CCN(c2ncc3ncnc(Nc4ccc(Oc5ccn6ncnc6c5)c(C)c4)c3n2)C1 [Example 395],≥ 10 µM
11,CN(C)c1ncc2ncnc(Nc3ccc(Oc4ccn5ncnc5c4)c(Cl)c3)c2n1 [Example 396],≥ 10 µM
12,Clc1cc(Nc2ncnc3cnc(N4CCOC5(CC5)C4)nc23)ccc1Oc1ccn2ncnc2c1 [Example 398],7.77 µM
13,Clc1cc(Nc2ncnc3cnc(N4C[C@@H]5[C@H](C4)[C@@H]4CC[C@H]5O4)nc23)ccc1Oc1ccn2ncnc2c1 [Example 399],≥ 10 µM
14,Cc1cc(Nc2ncnc3cnc(N4CC[C@@H](C(F)F)C4)nc23)ccc1Oc1ccn2ncnc2c1 [Example 400],8.42 µM
15,Cc1cc(Nc2ncnc3cnc(N4C[C@@H]5[C@@H](C#N)[C@@H]5C4)nc23)ccc1Oc1ccc2c(c1)ncn2C [Example 401],≥ 10 µM
